Experimental data from patent US8877949B2, “Furo[3,2-g]chromene compounds and uses thereof” (Shenyang Pharmaceutical University, priority 2010, dated 2014).
pIC50: −log10 of the molar value.

Experiments:
[1] = test system: MCF-7/ERE; test: MCF-7/ERE anti-proliferation assay (ERE-tk-luciferase); assay type: cell-based; settings: Homo sapiens, MCF7; n = 2
Method: Stock solutions (usually, 0.1 M) of the test compounds were prepared in DMSO, and then diluted by 10-100 folds in DMSO, so as to achieve the working solutions with a concentration of 1-10 mM. The stock solutions (in DMSO) were stored at 4° C. (0.1 M) or −20° C. (<0.1 M). MCF-7 cells were passaged twice per week using a growth medium (i.e. a D-MEM/F-12 medium). The cells were kept in a 37° C., aerated flask in an incubator filled with 5% CO2/95% humid air. One day before the treatment, a 96-well titration plate was coated with the cells in the medium, 25000 cells/well, and then cultured at 37° C., overnight.
The cells were transfected with 50 μL/well of 1/10 diluted adenovirus 5-ERE-tk-luciferase in the test medium (i.e. a D-MEM/F-12 medium without phenolsulfonphthalein) for 2 h. Then each well was washed once with 150μλ of the test medium. At last, the cells were divided into several replicates and treated at 37° C. for 24 h, wherein 8 wells were treated with 150μλ/well vehicle (≦0.1% v/v DMSO) or the compound diluted by ≧1000 folds with the test medium.
A primary screen of the test compounds was conducted with a single dose of 1 μM, wherein the test compound was alone (an agonist mode) or in combination with 0.1 nM 17β estradiol (EC80: an antagonist mode). Each 96-well plate also contained a vehicle control group (0.1% v/v DMSO) and an agonist control group (0.1 or 1 nM 17β estradiol). In the agonist and/or antagonist mode, a dose-response experiment was conducted for the active compounds which were increased by logarithm of 10^−14˜10^−5 M. Based on these dose-response curves, EC50 and IC50 values were determined respectively. The final titration wells in each treatment groups contained 5 μL of 3×10^−5 M ICC-182780 (10^−6 M final concentration), as an ER antagonist control.
After the treatment, the cells were lysed in 25 μL/well of 1× cell-culture lytic agent (Promega Corporation) for 15 min. Cell lysate (20 μL) was transferred into a 96-well photometer plate. The luciferase activity was measured with 100 μL/well of the substrate for luciferase (Promega Corporation) in MicroLumat LB 96P photometer (EG&G Berthold). Before adding the substrate, a background measurement was performed for each well for 1 s. After adding the substrate, the luciferase activity was measured after 1 s delay and within 10 s. The data obtained from the photometer were analyzed by JMF software (SAS Institute). Using this program, the background reading of the luciferase activity in each well was subtracted, and then the average and standard deviation were calculated for each group of treatment.
The above luciferase data were subjected to a logarithmic transformation, and the weights of the transformed results which were far away from the median was reduced using Huber M-estimator. The transformed and weighted data were analyzed using JMF software, so as to conduct a one-way ANOVA (D test). The results of the compound treatment groups were compared with that of a vehicle control group in the agonist mode, or with that of a positive agonist control group in the antagonist mode (0.1 nM 17β-estradiol). […] In addition, EC50 and/or IC50 values were determined from a nonlinear dose-response curve using JMF software.

[2] = test system: uteri; test: 6 weeks spayed rats, protection of bone and heart: uterine weight; assay type: in vivo, rat; settings: spayed female Sprague-Dawley CD rats, 6 weeks treatment; n = 2
Method: One day after a Taconic Farm surgery, spayed or pseudo-spayed female Sprague-Dawley CD rats (weighted 240-275 g) were obtained. These animals were fed with food and sufficient water, 3 or 4 rats/cage, in a 12/12 (light/dark) cycle. After one day, all items of investigative treatments were started to these animals. The animals were administered 7 days/week following the instruction, continuously for 6 weeks. In each investigation, one group of rats that were not treated, comparably aged, and subjected to pseudo-surgeries was used as an untreated and estrogen-sufficient control group.
All treatments were conducted with specified concentrations in physiological saline solution containing 1% Tween 80, so that the amount of the treatment was 0.1 mL/100 g body weight. Then 176 estradiol was dissolved in corn oil (20 μg/mL), and administered subcutaneously to rats, 0.1 mL/rat. The result was measured according to the average body weight of each group, and the animals were dosed once […].
Five weeks after the beginning of the treatment and one week before the end of the treatment, the bone mineral density (BMD) of each rat was evaluated. The total densities and trabecular densities of the proximal ends of tibias in the anaesthetized rats were evaluated using XCT-960M (pQCT; Stratec Medizintechik, Pforzheim, Germany). The measuring procedure is shown as follows: 15 minutes before scanning, each rat was anaesthetized by intraperitoneal injection of 45 mg/kg ketamine, 8.5 mg/kg xylazine, and 1.5 mg/kg acepromazine.
The right hindlimb was drawn over the polycarbonate test tube with a diameter of 25 mm, and tied up on the acrylic acid scaffold, so that the anklebone was situated as a right angle and the knee joint was kept horizontally. The polycarbonate test tube was fixed on the sliding platform, so as to be orthogonal with the aperture of pQCTR. The platform was adjusted, so that the distal end of femur and the proximal end of tibia were within the scanning zone. The plane scan image was set as an image with a length of 10 mm and a linear resolution of 0.2 mm.
Soft tissues were eliminated automatically using iterative algorithm. The density (total density) of the remaining bone was shown in a unit of mg/cm^3. In a concentric spiral separator, 55% of the external surface of the bone was peeled off. The density (i.e. trabecular density) of the remaining bone was shown in a unit of mg/cm^3. One week after BMD evaluation, the rats were sacrificed by CO2 asphyxiation. Blood was collected so as to measure cholesterol. Uteri were extracted and weighted. Total cholesterol was measured by Boehringer-Mannheim Hitachi 911 clinic analyzer utilizing a cholesterol/HP kit. A statistical comparison was carried out by way of one-way ANOVA of Dunnet's test.

[3] = test system: DU-145 prostate cancer cells; test: Effect on the proliferation of prostate cancer cells; assay type: cell-based; settings: Homo sapiens, DU-145, 120 h; 5 days, Cyquant kit; n = 2
Method: DU-145 prostate cancer cells were plated onto a 96-well dish, in a density of 2×10^3 cells/well in a MEM Eagles medium without phenol red. Such a medium comprises Earles' balanced salt, 1% antibiotic-antifungal agent, 2 mM glutamine, 0.1 mM nonessential amino acids, 1 mM sodium pyruvate and 10% carbon stripped FCS. The next day, the compound and vehicle (0.2% DMSO) were added, and the medium was refreshed every 48 hours. The cultivation was stopped 5 days later. Proliferation was analyzed using the above Cyquant kit.

Structure (SMILES)	pIC50 [1]	percentage of weight gain of uteri [2]	pIC50 [3]
O=C(c1ccc(OCC(=O)N2CCOCC2)cc1)c1oc2cc3c(cc2c1-c1ccc(O)cc1)CCCO3 [2-[4-(morpholine-2-oxo-ethoxy)benzoyl]-3-(4-hydroxyphenyl)-6,7-dihydrogen-5H-furo[3,2-g]chromene]	5.31	6.2%	4.63
CCN(CC)CCOc1ccc(C(=O)c2oc3cc4c(cc3c2-c2ccc(O)cc2)CCCO4)cc1 [Example 56, 2-[4-(diethylaminoethoxy)benzoyl]-3-(4-hydroxyphenyl)-6,7-dihydrogen-5H-furo[3,2-g]chromene]	4.87	15.1%	4.77
CN(C)CCOc1ccc(C(=O)c2oc3cc4c(cc3c2-c2ccc(O)cc2)CCCO4)cc1 [Example 58, 2-[4-(dimethylaminoethoxy)benzoyl]-3-(4-hydroxyphenyl)-6,7-dihydrogen-5H-furo[3,2-g]chromene]	4.64	3.2%	4.36
O=C(c1ccc(OCC(=O)N2CCCCC2)cc1)c1oc2cc3c(cc2c1-c1ccc(O)cc1)CCCO3 [Example 60, 2-[4-(piperidine-2-oxo-ethoxy)benzoyl]-3-(4-hydroxyphenyl)-6,7-dihydrogen-5H-furo[3,2-g]chromene]	5.25	12.4%	4.84
CCN(CC)C(=O)COc1ccc(C(=O)c2oc3cc4c(cc3c2-c2ccc(O)cc2)CCCO4)cc1 [Example 62, 2-[4-(diethylamino-2-oxo-ethoxy)benzoyl]-3-(4-hydroxyphenyl)-6,7-dihydrogen-5H-furo[3,2-g]chromene]	4.37	23.9%	4.45
CN(C)C(=O)COc1ccc(C(=O)c2oc3cc4c(cc3c2-c2ccc(O)cc2)CCCO4)cc1 [Example 64, 2-[4-(dimethylamino-2-oxo-ethoxy)benzoyl]-3-(4-hydroxyphenyl)-6,7-dihydrogen-5H-furo[3,2-g]chromene]	4.66	35.5%	5.07
